Consider twelve compounds from patent US11324725B2, “Compositions and methods for the inhibition of pruritus” (The United States of America, as represented by the …, priority 2017, dated 2022).

The target of this test is T1, hNpr1 (Homo sapiens, UniProt P16066).
T1 sequence (P16066 33-1061): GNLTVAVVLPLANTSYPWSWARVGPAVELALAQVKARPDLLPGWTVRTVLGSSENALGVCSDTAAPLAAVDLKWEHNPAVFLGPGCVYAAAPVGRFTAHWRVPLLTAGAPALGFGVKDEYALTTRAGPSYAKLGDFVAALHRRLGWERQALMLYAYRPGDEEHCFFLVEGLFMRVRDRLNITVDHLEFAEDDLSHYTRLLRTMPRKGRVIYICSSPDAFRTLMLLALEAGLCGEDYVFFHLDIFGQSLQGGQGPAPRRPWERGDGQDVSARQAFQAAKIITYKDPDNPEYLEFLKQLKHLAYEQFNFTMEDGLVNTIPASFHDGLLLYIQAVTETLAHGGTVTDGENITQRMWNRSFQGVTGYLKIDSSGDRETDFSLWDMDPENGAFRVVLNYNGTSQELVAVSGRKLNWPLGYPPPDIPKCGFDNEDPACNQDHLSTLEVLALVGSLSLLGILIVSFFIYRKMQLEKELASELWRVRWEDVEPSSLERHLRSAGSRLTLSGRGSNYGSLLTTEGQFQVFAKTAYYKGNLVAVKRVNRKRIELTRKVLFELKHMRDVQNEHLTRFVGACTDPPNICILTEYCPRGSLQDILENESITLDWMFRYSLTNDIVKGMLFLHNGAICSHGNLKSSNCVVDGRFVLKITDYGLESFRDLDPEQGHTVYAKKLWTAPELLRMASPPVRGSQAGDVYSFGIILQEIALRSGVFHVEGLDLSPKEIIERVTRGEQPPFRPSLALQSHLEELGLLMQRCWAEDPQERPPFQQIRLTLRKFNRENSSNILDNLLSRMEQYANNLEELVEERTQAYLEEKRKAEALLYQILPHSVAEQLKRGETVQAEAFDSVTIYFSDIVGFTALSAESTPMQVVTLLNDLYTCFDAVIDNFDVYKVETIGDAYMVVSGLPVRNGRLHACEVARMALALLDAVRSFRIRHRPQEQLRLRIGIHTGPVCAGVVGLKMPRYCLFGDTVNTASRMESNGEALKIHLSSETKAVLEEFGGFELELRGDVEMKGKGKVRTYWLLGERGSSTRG
In words: GloSensor assay in 96-well format, HEK-hNpr1-cGMP-sensor cells. Also noted: Reversibility of hNpr1 inhibition after washing: dose or concentration left out as unconfirmed. Format: cell-based. The settings on record: for Imax [%] (mean ± SEM), GloSensor 96-well format / IC50: 60 pM hNppa 5 minutes after compound; for IC50: read-out: IC50 [μM] (mean ± SEM), GloSensor 96-well format; for Ki: calculated with Cheng-Prusoff equation from Table 3, read-out: Ki hNpr1 GloSensor™ [μM] (mean ± SEM); for Effect on hNppa concentration-response at fixed antagonist concentration: 5 μM antagonist, increasing hNppa, GloSensor and membrane cyclase assays (FIGS. 5B-C); for Basal (unstimulated) hNpr1 activity: HEK-hNpr1-cGMP-sensor cells, no agonist. The method, then:
Before the measurement (24 hours in advance), 3×10^4 cells were seeded into white 96-well plates (PerkinElmer, Waltham, Mass.), coated with 0.1% poly(D-lysine), and assays conducted as recommended by the manufacturer (Promega). Medium was aspirated and cells were loaded for two hours at room temperature with 2% GoSensor™ reagent diluted in CO2-independent media (ThermoFisher) supplemented with 2 mM L-glutamine and 10% FBS (assay medium). Luminescence was measured on a BioTek Synergy™ NEO (Winooski, Vt.) plate reader at room temperature. After a baseline measurement of 3-5 minutes, assay medium as a control or assay medium with agonist was manually added, and luminescence was measured for 30 minutes at ˜ 1/60 Hz. For compounds tested for Npr1 and Npr2 inhibition, the compounds were added after baseline measurements, and luminescence was read for 5 minutes before addition of agonist. Luminescence was then normalized to baseline measurements and plotted against the time. Ligand-induced changes of cGMP production were quantified by determining the area under the curve. To determine efficacy and potency of agonists, ligand-induced changes were normalized to medium only addition and plotted against the ligand concentration. […] To quantify […] of compounds, compound-induced changes of agonist-induced cGMP production were normalized to vehicle controls, plotted against compound concentration, and fit with a four-parameter logistic regression. Effects of A-71915 on basal mNpr1 activity were fitted with a bell-shaped regression (equation indicated below).
Additional screens of the fifteen candidates corroborated hNpr1 inhibition. In particular, HEK-hNpr1-cGMP-sensor cells were seeded in 96-wells and stimulated with 60 pM hNppa 5 minutes after addition of candidate compounds or A-71915 and luminescence was measured for 30 minutes. Inhibitors were titrated to calculate apparent potency (IC50) and efficacy (Imax) of inhibition of hNppa-induced cGMP production.

Entries after “also recorded” stand apart in the source; their conditions may differ.

Regarding `CCC(CC)c1cc([C@H]2CN3CC[C@H]2C[C@@H]3CNS(=O)(=O)c2cccs2)nc(-c2ccncc2)n1` [JS-3, N-(((2R,4S,5R)-5-(6-(pentan-3-yl)-2-(pyridin-4-yl)pyrimidin-4-yl)quinuclidin-2-yl)methyl)thiophene-2-sulfonamide], the “Imax [%] (mean ± SEM), GloSensor 96-well format” value (“Imax [%] (mean ± SEM)” for short) is given as −99.4 ± 0.6%; the IC50 (in general, the point on the concentration scale where inhibition reaches its midpoint) came out at 3.1 ± 0.6 µM; the Ki (usually a dissociation constant, usually derived from enzyme kinetics or from competition with a known ligand) is 0.5 ± 0.102 µM.

For `COc1cc(CN2CCC(C)(NC(C)=O)CC2)cc(-c2ccncc2)c1` [JS-4, N-(1-(3-methoxy-5-(pyridin-4-yl)benzyl)-4-methylpiperidin-4-yl)acetamide], the “Imax [%] (mean ± SEM)” value is given as −95.5 ± 1.2%; the IC50 amounted to 1.1 ± 0.01 µM; the Ki is 0.18 ± 0.002 µM.

For `Cc1noc(C)c1-c1cc(-c2ccccc2Oc2ccccc2)cn2cncc12` [JS-5, 3,5-dimethyl-4-(6-(2-phenoxyphenyl)imidazo[1,5-a]pyridin-8-yl)isoxazole], the “Imax [%] (mean ± SEM)” value is on record as −99.9 ± 0.1%; the half-maximal inhibitory concentration (IC50) was 7.4 ± 0.3 µM; the “Effect on hNppa concentration-response at fixed antagonist concentration” value was “reduced maximal responses even at extremely high hNppa concentrations”; the “Basal (unstimulated) hNpr1 activity” value is listed as “dose dependently inhibited”. Besides, the inhibitory constant (Ki) was 1.18 ± 0.048 µM.

For `COc1ccccc1-c1n[nH]c2ncc(C(=O)NCc3cccnc3)nc12` [JS-6, 3-(2-methoxyphenyl)-N-(pyridin-3-ylmethyl)-1H-pyrazolo[3,4-b]pyrazine-5-carboxamide], the “Imax [%] (mean ± SEM)” value is −94.2 ± 5.3%; the IC50 was determined as 1.9 ± 0.1 µM; the inhibition constant (Ki) is 0.31 ± 0.023 µM.

Turning to `O=C(NCc1cccnc1)c1cnc2[nH]nc(-c3ccccc3)c2n1` [JS-7, 3-phenyl-N-(pyridin-3-ylmethyl)-1H-pyrazolo[3,4-b]pyrazine-5-carboxamide], the half-maximal inhibitory concentration (IC50) was determined as 1.2 ± 0.5 µM and the Ki is 0.19 ± 0.085 µM.

In the case of `Cc1nn2c(c1-c1ccccc1OCc1ccccc1)N(C(=O)Cc1ccc3c(c1)OCO3)CCC2` [JS-8, 2-(benzo[d][1,3]dioxol-5-yl)-1-(3-(2-(benzyloxy)phenyl)-2-methyl-6,7-dihydropyrazolo[1,5-a]pyrimidin-4(5H)-yl)ethan-1-one], the “Imax [%] (mean ± SEM)” value was −98.8 ± 0.7%; the IC50 came out at 1.2 ± 0.1 µM; the “Effect on hNppa concentration-response at fixed antagonist concentration” value is on record as “reduced maximal responses even at extremely high hNppa concentrations”; the “Basal (unstimulated) hNpr1 activity” value is recorded as “dose dependently inhibited”. Also, the Ki is 0.2 ± 0.013 µM. For the same compound, the “Reversibility of hNpr1 inhibition after washing” value (5 minutes compound, 5-minute washing step, then hNppa) is on record as “a single washing step was sufficient to completely recover hNpr1 activity; also recorded: reversible”.

In the case of `Cc1nn2c(c1-c1ccccc1OCc1ccccc1)N(C(=O)Cc1ccccn1)CCC2` [JS-9, 1-(3-(2-(benzyloxy)phenyl)-2-methyl-6,7-dihydropyrazolo[1,5-a]pyrimidin-4(5H)-yl)-2-(pyridin-2-yl)ethan-1-one], the “Imax [%] (mean ± SEM)” value is −93.4 ± 6.4%; the half-maximal inhibitory concentration (IC50) was 3.1 ± 1.4 µM; the inhibitory constant (Ki) was 0.49 ± 0.215 µM.

For the compound `Cc1nn2c(c1-c1ccccc1Oc1ccccc1)N(C(=O)Cc1ccc3c(c1)OCO3)CCC2` [JS-10, 2-(benzo[d][1,3]dioxol-5-yl)-1-(2-methyl-3-(2-phenoxyphenyl)-6,7-dihydropyrazolo[1,5-a]pyrimidin-4(5H)-yl)ethan-1-one], the “Imax [%] (mean ± SEM)” value is recorded as −98.3 ± 1.7%; the half-inhibitory concentration (IC50) was 6.7 ± 6.7 µM; the Ki was 1.07 ± 1.08 µM.

As for `Cc1cc(CNC(=O)c2ccc3c(c2)n(CC2CC2)c(=O)n3C2CCCCC2)on1` [JS-11, 1-cyclohexyl-3-(cyclopropylmethyl)-N-((3-methylisoxazol-5-yl)methyl)-2-oxo-2,3-dihydro-1H-benzo[d]imidazole-5-carboxamide], the “Imax [%] (mean ± SEM)” value was −96.3 ± 1.3%; the IC50 worked out at 1.9 ± 0.8 µM; the “Basal (unstimulated) hNpr1 activity” value was “dose dependently inhibited”; the inhibition constant Ki is 0.3 ± 0.134 µM.

For `COc1ccc(C2(C(=O)N3CCC4(CC3)c3nccn3-c3ccccc3CN4C)CC2)cc1` [JS-12, (1-(4-methoxyphenyl)cyclopropyl)(5-methyl-5,6-dihydrospiro[benzo[f]imidazo[1,2-a][1,4]diazepine-4,4′-piperidin]-1′-yl)methanone], the “Imax [%] (mean ± SEM)” value is given as −96.0 ± 1.3%; the IC50 amounted to 1.3 ± 0.002 µM; the inhibitory constant (Ki) was 0.21 ± 0.0002 µM.

Regarding `N#Cc1ccccc1CN1CCCC(C(=O)NCc2ccccc2)CCNC(=O)CC1` (stereo not shown) [JS-13, N-benzyl-1-(2-cyanobenzyl)-4-oxo-1,5-diazacycloundecane-8-carboxamide], the “Imax [%] (mean ± SEM)” value was −96.1 ± 0.4%; the half-inhibitory concentration (IC50) was found to be 1.1 ± 0.1 µM; the inhibition constant (Ki) is 0.18 ± 0.011 µM.

With `CN(Cc1ccccc1)C(=O)c1cn2ccnc(-c3ccccc3)c2n1` [JS-14, N-benzyl-N-methyl-8-phenylimidazo[1,2-a]pyrazine-2-carboxamide], the IC50 was determined as 3.1 ± 1.1 µM and the inhibitory constant (Ki) is 0.5 ± 0.179 µM.
